Assay results as given in patent US20250163038A1, “CBL-B MODULATORS AND USES THEREOF” (Nimbus Clio, Inc., priority 2021, published 2025).
Read-outs that look alike come from different tables or passages of the source.

Tests used:
[1] = system: Jurkat (clone E6-1) cells with NFAT luciferase reporter; test: Jurkat reporter assay (NFAT Luciferase); format: cell-based; conditions: Homo sapiens
[2] = molecular target: Recombinant human Cbl-b (aa 36-427) (Homo sapiens, UniProt Q13191); test: Cbl-b Biochemical Assay (TR-FRET); conditions: read-out: TR-FRET hCbl-b IC50
[3] = molecular target: T1, Recombinant human c-Cbl (aa 47-435) (Homo sapiens, UniProt P22681); test: c-Cbl Biochemical Assay (TR-FRET); conditions: hc-Cbl Biochemical Assay (TR-FRET); read-out: TR-FRET hcCbl IC50
T1 sequence (P22681 47-435): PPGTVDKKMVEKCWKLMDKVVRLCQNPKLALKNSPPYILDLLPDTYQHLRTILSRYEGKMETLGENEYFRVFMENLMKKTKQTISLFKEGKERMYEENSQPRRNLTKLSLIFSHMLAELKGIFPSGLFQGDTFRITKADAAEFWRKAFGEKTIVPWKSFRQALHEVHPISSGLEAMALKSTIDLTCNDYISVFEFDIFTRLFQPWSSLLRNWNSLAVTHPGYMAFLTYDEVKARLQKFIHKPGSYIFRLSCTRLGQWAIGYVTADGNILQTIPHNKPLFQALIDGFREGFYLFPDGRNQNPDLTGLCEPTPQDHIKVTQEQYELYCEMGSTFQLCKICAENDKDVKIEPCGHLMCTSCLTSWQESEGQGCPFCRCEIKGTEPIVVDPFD

[4] = Jurkat NFAT luciferase reporter cells, anti-CD3 stimulation, 6 hr, read-out: Jurkat NFAT EC50

Recombinant human Cbl-b (aa 36-427), sequence (Q13191 36-427): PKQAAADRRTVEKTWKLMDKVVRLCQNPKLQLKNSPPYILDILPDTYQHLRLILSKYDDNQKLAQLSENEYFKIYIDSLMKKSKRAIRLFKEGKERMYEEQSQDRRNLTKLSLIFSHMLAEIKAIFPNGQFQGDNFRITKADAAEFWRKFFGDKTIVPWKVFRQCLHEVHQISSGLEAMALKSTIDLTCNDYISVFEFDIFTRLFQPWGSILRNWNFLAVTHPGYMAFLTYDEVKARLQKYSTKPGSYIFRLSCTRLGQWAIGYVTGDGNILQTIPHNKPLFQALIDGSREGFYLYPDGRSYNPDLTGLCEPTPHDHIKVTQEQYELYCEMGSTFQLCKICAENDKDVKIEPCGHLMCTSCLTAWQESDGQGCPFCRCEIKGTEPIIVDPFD

| EC50 [1, 4] [µM] | IC50 [2] [nM] | IC50 [3] [nM] | Structure (SMILES) | EC50 ([1]; Jurkat, 6 h, read-out: Jurkat NFAT EC50 (μM)) [µM] |
| --- | --- | --- | --- | --- |
| 0.2 to 1 | < 200 | < 200 | COCCNCc1cc(OC)c2oc(-c3cccc(-c4ccc(F)cc4-c4nncn4C)c3)nc2c1 [EL-1, N-((2-(4′-Fluoro-2′-(4-methyl-4H-1,2,4-triazol-3-yl)-[1,1′-biphenyl]-3-yl)-7-methoxybenzo[d]oxazol-5-yl)methyl)-2-methoxyethan-1-amine] |  |
| 0.2 to 1 | < 200 | 200 to 1000 | COC[C@@H](C)NCc1cc(C(F)(F)F)c2oc(-c3cccc(-c4ccc(F)cc4-c4nncn4C)c3)nc2c1 [EN-2, (R)—N-((2-(4′-Fluoro-2′-(4-methyl-4H-1,2,4-triazol-3-yl)-[1,1′-biphenyl]-3-yl)-7-(trifluoromethyl)benzo[d]oxazol-5-yl)methyl)-1-methoxypropan-2-amine] |  |
| < 0.2 | < 200 | < 200 | Cn1cnnc1-c1cc(F)ccc1-c1cccc(-c2nc3cc(CN[C@@H]4CCC[C@@H]4F)cc(C(F)(F)F)c3o2)c1 [CW-5, (1R,2S)-2-Fluoro-N-((2-(4′-fluoro-2′-(4-methyl-4H-1,2,4-triazol-3-yl)-[1,1′-biphenyl]-3-yl)-7-(trifluoromethyl)benzo[d]oxazol-5-yl)methyl)cyclopentan-1-amine] |  |
| < 0.2 | < 200 | < 200 | Cn1cnnc1-c1cc(F)ccc1-c1cc(Cl)nc(-c2nc3cc(CN[C@@H]4CCC[C@@H]4O)cc(C(F)(F)F)c3[nH]2)c1 [ADY-2, (1S,2R)-2-{[(2-{6-Chloro-4-[4-fluoro-2-(4-methyl-1,2,4-triazol-3-yl)phenyl]pyridin-2-yl}-7-(trifluoromethyl)-1H-1,3-benzodiazol-5-yl)methyl]amino}cyclopentan-1-ol] |  |
| 0.2 to 1 | < 200 | < 200 | CN(Cc1cc2nc(-c3cccc(-c4ccc(F)cc4-c4nncn4C)c3)oc2c(F)c1F)[C@@H]1CCC[C@@H]1O [JJ-3, (1S,2R)-2-(((6,7-Difluoro-2-(4′-fluoro-2′-(4-methyl-4H-1,2,4-triazol-3-yl)-[1,1′-biphenyl]-3-yl)benzo[d]oxazol-5-yl)methyl)(methyl)amino)cyclopentan-1-ol] |  |
| < 0.2 | < 200 | < 200 | Cn1cnnc1-c1cc(Cl)ccc1-c1cccc(-c2nc3cc(CN[C@@H]4CCC[C@@H]4O)cc(C(F)(F)F)c3[nH]2)c1 [ADB-9, (1S,2R)-2-(((2-(4′-Chloro-2′-(4-methyl-4H-1,2,4-triazol-3-yl)-[1,1′-biphenyl]-3-yl)-7-(trifluoromethyl)-1H-benzo[d]imidazol-5-yl)methyl)amino)cyclopentan-1-ol] |  |
| < 0.2 | < 200 | < 200 | COC[C@H](C)NCc1cc(C)c2oc(-c3cc(-c4ccc(F)cc4-c4nncn4C)cc(C4CC4)n3)nc2c1 [AGK-1, [(2-{6-Cyclopropyl-4-[4-fluoro-2-(4-methyl-1,2,4-triazol-3-yl)phenyl]pyridin-2-yl}-7-methyl-1,3-benzoxazol-5-yl)methyl][(2S)-1-methoxypropan-2-yl]amine] |  |
| 0.2 to 1 | < 200 | 1000 to 10000 | C[C@H](c1cc(C(F)(F)F)c2oc(-c3cccc(C4(Cc5nncn5C)COC4)c3)nc2c1)N1CCC2(CC2)C1 [AAD-1, 5-[(1R)-1-{5-azaspiro[2.4]heptan-5-yl}ethyl]-2-(3-{3-[(4-methyl-1,2,4-triazol-3-yl)methyl]oxetan-3-yl}phenyl)-7-(trifluoromethyl)-1,3-benzoxazole] |  |
| < 0.2 | < 200 | < 200 | Cn1cnnc1-c1cc(F)ccc1-c1cccc(-c2nc3cc(CN[C@H]4CC[C@@H]4O)cc(C(F)(F)F)c3o2)c1 (racemic) [ADF-2, (1R,2R)-2-[({2-[4′-Fluoro-2′-(4-methyl-1,2,4-triazol-3-yl)-[1,1′-biphenyl]-3-yl]-7-(trifluoromethyl)-1,3-benzoxazol-5-yl}methyl)amino]cyclobutan-1-ol] |  |
| < 0.2 | < 200 | < 200 | Cn1cnnc1-c1cc(F)ccc1-c1cccc(-c2nc3cc(CN[C@]4(C)CCC[C@@H]4O)cc(C(F)(F)F)c3o2)c1 (racemic) [IM-8, rac-(1S,2R)-2-(((2-(4′-fluoro-2′-(4-methyl-4H-1,2,4-triazol-3-yl)-[1,1′-biphenyl]-3-yl)-7-(trifluoromethyl)benzo[d]oxazol-5-yl)methyl)amino)-2-methylcyclopentan-1-ol] |  |
| 1 to 10 | 1000 to 10000 | 200 to 1000 | Cn1cnnc1-c1cc(F)ccc1-c1cc(-c2nc3cc(CN4CC(F)C4)cc(F)c3o2)nc(C2CC2)c1 [AFP-3, 2-{6-Cyclopropyl-4-[4-fluoro-2-(4-methyl-1,2,4-triazol-3-yl)phenyl]pyridin-2-yl}-7-fluoro-5-[(3-fluoroazetidin-1-yl)methyl]-1,3-benzoxazole] |  |
| < 0.2 | < 200 | < 200 | COc1cc(CNCC2CCC2)cc2nc(-c3cccc(-c4ccc(F)cc4-c4nncn4C)c3)oc12 [FA-1, 1-Cyclobutyl-N-((2-(4′-fluoro-2′-(4-methyl-4H-1,2,4-triazol-3-yl)-[1,1′-biphenyl]-3-yl)-7-methoxybenzo[d]oxazol-5-yl)methyl)methanamine] |  |
| < 0.2 | < 200 | < 200 | Cn1cnnc1-c1cc(F)ccc1-c1cc(-c2nc3cc(CN[C@@H]4CCC[C@@H]4O)cc(F)c3o2)cc(C2CC2)c1 [JM-4, (1S,2R)-2-(((2-(5-Cyclopropyl-4′-fluoro-2′-(4-methyl-4H-1,2,4-triazol-3-yl)-[1,1′-biphenyl]-3-yl)-7-fluorobenzo[d]oxazol-5-yl)methyl)amino)cyclopentan-1-ol] |  |
| < 0.2 | < 200 | < 200 | COCCNCc1cc(C(F)(F)F)c2[nH]c(-c3cc(-c4ccc(F)cc4-c4nncn4C)cc(C4CC4)n3)nc2c1 [ADW-1, [(2-{6-Cyclopropyl-4-[4-fluoro-2-(4-methyl-1,2,4-triazol-3-yl)phenyl]pyridin-2-yl}-7-(trifluoromethyl)-1H-1,3-benzodiazol-5-yl)methyl](2-methoxyethyl)amine] |  |
| 1 to 10 | < 200 | 200 to 1000 | CO[C@H](CO)c1cc(C(F)(F)F)c2oc(-c3cccc(-c4ccc(F)cc4-c4nncn4C)c3)nc2c1 (single isomer, unassigned) [EG-2] |  |
| 0.2 to 1 | < 200 | < 200 | C[C@@H]1CCC[C@@H](NCc2cc(C(F)(F)F)c3oc(-c4cccc(-c5ccc(F)cc5-c5nncn5C)c4)nc3c2)C1 (racemic) [FV-3, rac-(1R,3R)—N-((2-(4′-fluoro-2′-(4-methyl-4H-1,2,4-triazol-3-yl)-[1,1′-biphenyl]-3-yl)-7-(trifluoromethyl)benzo[d]oxazol-5-yl)methyl)-3-methylcyclohexan-1-amine] |  |
| 1 to 10 | < 200 | 1000 to 10000 | Cn1cnnc1-c1ccccc1-c1cc(-c2nc3cc(CN4CCC5(CC5)C4)cc(C(F)(F)F)c3o2)nc(C2CC2)c1 [AAR-2, 5-{5-Azaspiro[2.4]-heptan-5-ylmethyl}-2-{6-cyclopropyl-4-[2-(4-methyl-1,2,4-triazol-3-yl)-phenyl]-pyridin-2-yl}-7-(trifluoromethyl)-1,3-benzoxazole] |  |
| 0.2 to 1 | < 200 | < 200 | Cn1cnnc1-c1cc(F)ccc1-c1cc(-c2nc3cc(CNCC4CC4)ccc3o2)nc(C2CC2)c1 [AEI-1, [(2-{6-Cyclopropyl-4-[4-fluoro-2-(4-methyl-1,2,4-triazol-3-yl)phenyl]pyridin-2-yl}-1,3-benzoxazol-5-yl)methyl](cyclopropylmethyl)amine] |  |
| 0.2 to 1 | < 200 | < 200 | CO[C@H](C)CNCc1cc(F)c2oc(-c3cc(-c4ccc(F)cc4-c4nncn4C)cc(C4CC4)n3)nc2c1 [AFN-2, [(2-{6-Cyclopropyl-4-[4-fluoro-2-(4-methyl-1,2,4-triazol-3-yl)phenyl]pyridin-2-yl}-7-fluoro-1,3-benzoxazol-5-yl)methyl][(2R)-2-methoxypropyl]amine] |  |
| 1 to 10 | < 200 | 1000 to 10000 | C[C@H]1CCCN(Cc2cc(C(F)(F)F)c3oc(-c4cccc([C@]5(c6nncn6C)C[C@@H](C)C5)c4)nc3c2)C1 [AAY-2, 5-{[(3S)-3-Methylpiperidin-1-yl]methyl}-2-{3-[(1r,3s)-3-methyl-1-(4-methyl-1,2,4-triazol-3-yl)cyclobutyl]phenyl}-7-(trifluoromethyl)-1,3-benzoxazole] |  |
| < 0.2 | < 200 | < 200 | Cc1cc(C(C)NCC2CCC2)cc2nc(-c3cc(-c4ccc(F)cc4-c4nncn4C)cc(C4CC4)n3)oc12 (stereo not drawn) [AGU-1, (cyclobutylmethyl)[1-(2-{6-cyclopropyl-4-[4-fluoro-2-(4-methyl-1,2,4-triazol-3-yl)phenyl]pyridin-2-yl}-7-methyl-1,3-benzoxazol-5-yl)ethyl]amine] |  |

| Structure (SMILES) | EC50 [1, 4] [µM] | IC50 [2] [nM] | IC50 [3] [nM] | EC50 ([1]; Jurkat, 6 h, read-out: Jurkat NFAT EC50 (μM)) [µM] |
| --- | --- | --- | --- | --- |
| CN(C)Cc1cc2nc(-c3cc(-c4ccc(F)cc4-c4nncn4C)cc(C4CC4)n3)oc2c(F)c1F [AHH-3, [(2-{6-cyclopropyl-4-[4-fluoro-2-(4-methyl-1,2,4-triazol-3-yl)phenyl]pyridin-2-yl}-6,7-difluoro-1,3-benzoxazol-5-yl)methyl]dimethylamine] |  | < 200 | 200 to 1000 | 1 to 10 |
